How the values were obtained:
[1] = system: Lewis rats, ventral tegmental area (VTA); test: Ethanol self-administration (two-bottle continuous access) after microinjection into the VTA; assay type: in vivo
Experimental: Male Lewis rats (Harlan Laboratories, Indianapolis, Ind.) weighing between 275-300 g were individually housed in a temperature controlled colony room (21° C.) maintained on a reversed light/dark cycle 12L:12D cycle (lights off at 10 A.M., lights on at 10 P.M.). All experiments were performed during the dark portion of the cycle. Food and water was provided ad libitum.
Ethanol was administered via a two-bottle continuous access, free-choice paradigm in which one bottle contained 10% ETOH (v/v) and the other bottle contained water. Sucrose was never added to the ethanol solution. The amount of ETOH and water consumed was measured at the same time daily (10 A.M.). […] Animals were weighed daily. Bottles were identical and their positions were counterbalanced and rotated daily. Change in drinking was calculated by subtracting the amount of drinking (mg/kg) on the day following treatment from the amount of drinking (mg/kg) on the day prior to treatment.
Animals were anesthetized and maintained on isoflurane (0.5 l/min) as needed for the duration of surgery. Animals were placed in a stereotaxic frame and were implanted with bilateral 26-gauge stainless steel chronic guide cannulas (Plastincs One, Roanoke, Va.) into the VTA (AP, −5.8; ML, ±0.5; DV, −7.0) based on the atlas of Paxinos and Watson (1997, The rat brain in sterotaxic coordinates, compact, Ed 3. San Diego: Academic). Cannulas were secured to the skull with dental cement. At the end of the surgical procedure, animals were treated with penicillin and topical antibiotics. A stainless steel dummy cannula (Plastics One) was inserted into each guide cannula and remained in place when the guide cannulas were not in use. Animals were allowed a 1 week recovery period before behavioral testing.
Each injection was made using a 1 μl syringe (Hamilton, Reno, Nev.) attached to 20 cm of PE 50 tubing connected to a 33-gauge injection cannula (Plastics One). Microinjections of 0.5 μl volumes were given at a rate of 0.5 μl/min using a syringe pump (kd Scientific, Hollister, Mass.) into each side of the VTA, except for bicuculline injections, where 0.25 μl was injected per side. Injection cannulas extended 2 mm beyond guide cannulas and were left in place for 1 min following microinjections to minimize the backflow of drug solution. In addition to drug microinjections, physiological saline microinjections were made in every rat to measure the effect of the injection manipulation alone on drinking Drug injections were randomized and counterbalanced. Change in drinking due to drug microinjections was calculated by comparing both the previous day's consumption (“baseline”) and to saline injection. At the conclusion of the experiment, animals were anesthetized with pentobarbital and perfused intracardially through the ascending aorta with 0.1 M phosphate buffered saline followed by 10% formalin. Brains were sectioned coronally at 50 μm, mounted and stained with cresyl violet. Only animals with confirmed injection sites within the VTA were included. No behavioral differences were observed between animals with anterior compared with posterior cannula placements.
For behavioral experiments, DPDPE (10mM; Sigma, St. Louis, Mo.), TIPP-ψ (5 μM; NIDA, Bethesda, Md.), Bicuculline (1 mM; Sigma), DAMGO (0.2 mM; Sigma), and CTOP (10 mM; Tocris, Ellisville, Mo.) were prepared in physiological saline for microinjection into the VTA. For electrophysiology, all drugs were applied by bath perfusion. Stock solutions were made and diluted in artificial CSF immediately before application. All chemicals were obtained from Sigma or Tocris except TIPP-ψ, which was acquired from NIDA.
Results are presented as mean±SEM where appropriate. For behavioral data, drinking was analyzed using 24 h time points. Raw drinking data were used for paired Student's t test comparisons probing drug effects on drinking compared with baseline or saline injections, a more conservative comparison than analyzing normalized data. […]

[2] = system: GABAA IPSCs in VTA neurons; test: Slice electrophysiology, whole-cell patch-clamp of GABAA IPSCs in VTA neurons; assay type: cell-based, Lewis rats
Lewis rats = test: Cocaine self administration after VTA microinjection; assay type: in vivo; details: 10 mM into VTA, compared to saline
Experimental: Lewis rats (Charles River, Mass.) weighing 275-350 g at the beginning of behavioral testing are housed and treated as previously described. Prior to cocaine self administration, rats are anesthetized with a ketamine-xylazine-acepromazine mixture and implanted with a chronic jugular catheter using methods previously described (Caine & Koob, 1993). Following surgery, rats receive daily administration of the antibiotic ticarcillin (20 mg/day at 100 mg/ml; GlaxoSmithKline, Research Triangle Park, NC). Catheter patency is tested by infusion of the fast-acting barbiturate Brevital (methohexital sodium; 1 mg/0.1 ml; Lilly, Indianapolis, Ind.). Self-administration training is conducted in operant-conditioning chambers enclosed within sound-attenuating cabinets (MED Associates, St. Albans, Vt.). […] Presses on the active lever result in either a 120 microL infusion of cocaine over a 4-s period via a Razel pump (Razel Scientific Instruments, Fairfax, Vt.) or delivery of a 45-mg food pellet (Bio-Serv, Frenchtown, N.J.). […] Presses on the active lever result in a 20-s time-out, signaled by illumination of the stimulus light and retraction of the active lever. […] Following training, rats are microinjected with either 10 mM DPDPE or saline directly into the VTA prior to cocaine self-administration and active lever presses are recorded.

[3] = 1 μM, VTA neurons from drinking animals

With “(2-D-penicillamine, 5-D-penicillamine)-enkephalin [DPDPE]” the “drinking (EtOH)” value ([1]; 10 mM into VTA, compared with control saline microinjections in the same rats) was “also evident”, the “drinking (EtOH)” value ([1]; 10 mM into VTA, high drinkers) was “only at trend level” and the “drinking (EtOH)” value ([1]; 10 mM into VTA, low drinkers) was “particularly prominent”. The “relation between baseline EtOH consumption and % baseline drinking following administration” value ([1]; 10 mM into VTA, n=15) was “inverse correlation”, the “drinking (EtOH)” value ([1]; 10 mM microinjected into VTA, all animals, compared with the day before treatment) was “decreased drinking” and the “relation between DPDPE induced inhibition of evoked and spontaneous IPSCs and amount of EtOH consumed” value [2] was “inverse correlation”. For the same substance, the “evoked IPSCs” value [2, 3] was “significantly inhibited”, the “spontaneous IPSCs” value [2, 3] was “significantly inhibited” and the “GABA release onto VTA neurons” value ([2]; abstinent animals, 3 and 7 days off bottles) was “maintained its ability to inhibit GABA release”. The “GABAA IPSCs” value ([2]; age-matched, ethanol-naive, control animals) was “no effect”, the saturating dose ([2]; dose-response in the animal groups, in presence of 1 μM CTAP) was 1 µM and the “GABA release in the VTA” value ([2]; low drinkers) was “Decreases GABA Release”. The “cocaine self administration (active lever presses)” value (Lewis rats) was “decrease cocaine self administration”.

Reference: patent US8691768B2, “Methods of determining delta opioid receptor subtypes” (The Regents of the University of California, priority 2008, dated 2014)
